Experimental data reported in article PMC11811597, “Phenomics‐Based Discovery of Novel Orthosteric Choline Kinase Inhibitors” (Angewandte Chemie (International Ed. in English), 2025).

Key:
SCARB2 = target: T1, SCARB2 (Homo sapiens, UniProt Q14108); experiment: PISA thermal profiling, intact HepG2 cells; assay type: cell-based; conditions: 30 µM, 60 min, n=3
T1 construct: endogenous in cells; host or cells: intact HepG2 cells
Method: (§1) To further corroborate our findings, we next performed the proteome integral solubility alteration (PISA) assay in HepG2 human hepatoma cells that express high levels of CHKA. Conceptually building on the cellular thermal shift assay (CETSA) with mass spectrometry based detection,[19, 20] PISA leverages compound‐mediated stabilisation of target proteins without the need of chemical modification in intact cells. […]
(§2) Experiments were performed as described earlier with few modifications. In short, 3 replicates of intact HepG2 cells were treated with 30 µM UNC0638, UNC373 or corresponding volume of DMSO in medium-free experimental buffer for 60 min at 37 °C with end-over-end rotation. For lysates: Washed […]
(§3) end-over-end rotation. Each treated cell suspension or lysate was divided into 12 aliquots and subjected to a 12-step heat gradient from 44 °C to 64 °C. All the temperature points were pooled together to form […] individual samples. Soluble fraction was separated from precipitated proteins […]
(§4) by centrifugation at 30,000 × g for 20 min at 4 °C. The soluble fractions were collected to fresh tubes and further processed to be analysed with mass spectrometry. Sample handling, TMT labelling, LC-MS/MS analysis, protein identification and data analysis was performed as described earlier.[12] […]
(§5) […]

TGOLN2 = target: T2, TGOLN2 (Homo sapiens, UniProt O43493); experiment: PISA thermal profiling, intact HepG2 cells; assay type: cell-based; conditions: 30 µM, 60 min, n=3
T2 construct: endogenous in cells; host or cells: intact HepG2 cells
Method: as §1, §2, §3, §4, §5

CHKA = CHKA (Homo sapiens, UniProt P35790); experiment: PK/LDH coupled choline kinase enzyme assay; assay type: biochemical; set-up: host or cells: E. coli BL21(DE3); conditions: concentration-dependent
Method: carried out using REFMAC[9] and COOT,[10] and concluded when no improvements resulted for Rfree and Rwork values, and when density maps indicated no further changes were justified.
Choline Coupled Enzymatic Assay
CHKA (120 ng, 24 µg/ml) was arrayed (5 µL) into a 96 well semi-skirted real time PCR plate. 4-fold dilution series and vehicle controls (0.5% DMSO) were prepared in a separate plate. A further DMSO control was included for use with a no protein well control. The dilutions (17 µL) were mixed with reaction buffer (136 µL, see Table below) and arrayed (45 µL) onto the CHKA-containing PCR plate.
After mixing, bubbles were removed by centrifugation (1000 × g, 1 min) and absorbance read at 340 nm on a PheraSTAR FSX (BMG Labtech), reading every minute for 10 min. Non-linear curve fitting and graph generation was performed using Graphpad Prism 8 software.
Components of the assay reaction buffer.
Component Stock concentration Volume per buffer Final reaction […]
as §2, with “Washed K562 cells were resuspended in medium-free experimental buffer and lysed by three freeze-thaw cycles.” for “Washed”

T1 sequence (Q14108 whole entry): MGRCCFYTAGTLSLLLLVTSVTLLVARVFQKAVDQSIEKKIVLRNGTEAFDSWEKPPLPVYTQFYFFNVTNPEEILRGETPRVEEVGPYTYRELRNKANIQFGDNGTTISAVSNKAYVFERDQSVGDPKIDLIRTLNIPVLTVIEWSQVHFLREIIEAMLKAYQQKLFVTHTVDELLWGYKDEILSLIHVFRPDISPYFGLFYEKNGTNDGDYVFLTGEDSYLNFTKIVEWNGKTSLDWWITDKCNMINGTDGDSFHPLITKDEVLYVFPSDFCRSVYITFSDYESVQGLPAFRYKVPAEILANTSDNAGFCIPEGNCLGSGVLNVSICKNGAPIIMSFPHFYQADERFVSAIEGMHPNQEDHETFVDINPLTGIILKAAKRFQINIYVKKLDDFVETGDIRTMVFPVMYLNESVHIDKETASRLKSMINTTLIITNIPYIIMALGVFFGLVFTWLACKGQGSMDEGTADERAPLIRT
T2 sequence (O43493 22-437): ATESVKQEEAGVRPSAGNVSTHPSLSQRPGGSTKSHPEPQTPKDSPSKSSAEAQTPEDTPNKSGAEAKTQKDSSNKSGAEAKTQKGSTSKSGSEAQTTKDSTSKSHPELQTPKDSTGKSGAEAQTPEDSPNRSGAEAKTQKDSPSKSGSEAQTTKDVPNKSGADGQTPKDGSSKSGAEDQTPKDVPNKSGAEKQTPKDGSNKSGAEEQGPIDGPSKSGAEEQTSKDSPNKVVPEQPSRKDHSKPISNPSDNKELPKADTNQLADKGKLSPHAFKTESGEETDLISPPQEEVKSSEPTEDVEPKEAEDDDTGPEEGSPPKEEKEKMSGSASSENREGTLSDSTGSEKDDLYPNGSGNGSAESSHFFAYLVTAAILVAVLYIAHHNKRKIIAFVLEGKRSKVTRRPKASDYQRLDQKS
Chain of CHKA (P35790 75-457 limits assumed): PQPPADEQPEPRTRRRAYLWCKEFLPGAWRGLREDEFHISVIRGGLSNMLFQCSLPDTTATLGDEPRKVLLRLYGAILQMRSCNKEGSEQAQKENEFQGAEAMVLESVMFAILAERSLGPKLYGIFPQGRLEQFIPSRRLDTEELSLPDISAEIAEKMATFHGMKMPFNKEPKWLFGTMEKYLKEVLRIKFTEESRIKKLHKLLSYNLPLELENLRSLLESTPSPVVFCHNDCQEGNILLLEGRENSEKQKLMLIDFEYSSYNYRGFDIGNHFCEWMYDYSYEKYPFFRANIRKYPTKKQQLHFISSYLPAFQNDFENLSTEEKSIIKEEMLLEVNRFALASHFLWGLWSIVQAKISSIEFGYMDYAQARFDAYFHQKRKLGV

| Structure (SMILES) | effect_CETSA_Intact (PISA amplitude), SCARB2 (SCARB2) | effect_CETSA_Intact (PISA amplitude), TGOLN2 (TGOLN2) | CHKA catalytic activity (CHKA) |
| --- | --- | --- | --- |
| COc1cc2c(NC3CCN(C(C)C)CC3)nc(C3CCCCC3)nc2cc1OCCCN1CCCC1 [UNC0638] | 0.251 | 0.53 | suppressed CHKA catalytic activity |
| COc1cc2c(N(C)C3CCN(C(C)C)CC3)nc(C3CCCCC3)nc2cc1OCCCN1CCCC1 [UNC0737] | 0.514 | 0.571 | suppressed CHKA catalytic activity |
